Experimental findings from patent publication US12173089B2, “Inhibition of pulmonary fibrosis with nutlin-3A and peptides” (BOARD OF REGENTS, THE UNIVERSITY OF TEXAS SYSTEM, priority 2013, dated 2024) are described below.

Assay [1] relates to FL-fibroblasts. Put plainly: Proliferation of cultured FL-fibroblasts (cell count). The settings on record: cells counted after 3 d. The assay is classed as cell-based, human. The protocol:
FIGS. 8A-8C. Role of p53-fibrinolytic system cross-talk in nutlin-3a (NTL) or CSP-4-mediated inhibition of col-I expression in FL(IPF)-fibroblasts. (FIG. 8A) FL-fibroblasts were exposed to PBS, nutlin-3a (10 uM), CSP-4 (10 nM) or control peptide (CP) for 48 h. The cell lysates were immunoblotted for the expression of Col-I, PAI-1, p53, uPA and β-actin. (FIG. 8B) FL-fibroblasts cultured in 12 well plates in DMEM media were exposed to vehicle (PBS) or nutlin-3a, CSP-4 or CP. After 3 d, cells were detached and counted. (FIG. 8C) FL-fibroblasts were transduced with empty adenovirus vector alone (Ad-EV) or Ad-vector expressing p53 (Ad-p53), PAI-1 (Ad-PAI-1) or caveolin-1 (Ad-Cav-1). After 48 h, cell lysates were immunoblotted for Col-I, p53, PAI-1, uPA and β-actin.
FL-fibroblasts were exposed to PBS (control), nutlin-3a (10 μM), CSP-4 (10 nM) or CP for 48 hrs. Lysates were immunoblotted for the expression of Col-I, PAI-1, p53, and uPA. Cultured FL- were exposed to vehicle (PBS) or nutlin-3a, CSP-4 or CP and counted to assess proliferation. […] The process involves induction of p53 and PAI-1 expression, and concurrent inhibition of uPA.

Another assay relates to BLM-treated mice. Put plainly: Ki-67 immunohistochemistry of lung sections of BLM-treated mice. The assay is classed as in vivo. As to conditions: IV treatment 14 d after BLM, sections seven days later. The protocol:
FIGS. 12A-12C. CSP-4 or nutlin-3a (NTL) inhibits proliferation of FL-fibroblasts. Mice were exposed to BLM for 14 d to induce significant lung fibrosis or to saline (fibrosis controls). 14 d later, mice exposed to BLM were treated with CSP-4 or CP, or nutlin-3a (see FIGS. 10A-10D/11A-11D). (FIG. 12A): Lung sections (d 21 after BLM injury) were subjected to immunohistochemistry (IHC) for Ki-67 to assess proliferation. One representative example is shown (n=9). Fibroblasts were isolated from the lungs of mice exposed to saline, BLM or BLM+nutlin-3a (as described in FIG. 11A) were tested for the changes in expression of col-I, p53 and downstream uPA and PAI-1 proteins by Western blotting (FIG. 12B):, and mRNA by quantitative RT-PCR (FIG. 12C).
Mice exposed to BLM 14 days earlier were treated with CSP-4 or its control (CP) or Nutlin-3a IV (as in Examples IX and X). Seven days later lung sections were obtained and subjected to IHC for Ki-67 to assess cell proliferation (see FIG. 12A). […] Fibroblasts isolated from the lungs of these animals (as described in Example X) were tested for the changes in expression of col-I, p53 and downstream uPA and PAI-1 proteins by Western blotting, and mRNA by quantitative RT-PCR (see FIGS. 12B-12C).

A further assay relates to FL(IPF)-tissues. Put plainly: Ex vivo treatment of FL-lung tissues from IPF patients. The assay is classed as cell-based, human. As to conditions: for PAI-1 levels in fibroblasts isolated from IPF explants / Phosphorylation of Akt in fibroblasts from IPF explants / expression of PDGFR-β mRNA and protein in fibroblasts from IPF explants / miR-34a levels in fibroblasts isolated from IPF explants / p53 levels in fibroblasts isolated from IPF explants / uPA expression in fibroblasts isolated from IPF explants / uPAR expression in fibroblasts isolated from IPF explants / ECM synthetic rates of FL-lung explants: nutlin-3a 10 μM or CSP-4 10 nM, 3 to 7 days; for ECM synthetic rates of FL-lung explants: vs untreated, vehicle or CP; for production of ECM of fibroblasts from IPF explants / rate of proliferation of fibroblasts from IPF explants: vs FL-fibroblasts from untreated, vehicle- or CP-treated controls. The protocol: Freshly dissected FL-lung tissues from IPF patients are treated with nutlin-3a (10 μM) or CSP-4 (10 nM) for 3 to 7 days (see FIG. 13). Lung tissues are homogenized and tested for changes in ECM (hydroxyproline and desmosine). Controls include fibrotic lung (FL)-tissues from IPF patients treated with vehicle or control peptide, CP or naive lung tissues maintained in culture medium. Other controls include NL-tissues resected from histologically “normal” lungs. De-identified patient (“normal” and IPF) lungs that were not suitable for transplantation and donated for medical research are obtained through HAM (Edison, NJ) and the NDRI (Philadelphia, PA) and used for ex vivo studies. Fibroblasts are isolated from these tissues and analyzed for changes in p53, uPA, uPAR and PAI-1 expression, production of ECM and viability. Changes in rate of ECM synthesis are also measured. FL-tissue explants from patients with IPF have elevated synthesis of ECM when compared to expression levels in the slices of NL-tissues from control subjects. […] Phosphorylation of Akt and expression of PDGFR-β mRNA and protein also are reduced in fibroblasts from IPF explants treated with nutlin-3a or CSP-4.

The test system of assay [2] is fibrotic lung tissue explants. Put plainly: Ex vivo treatment of fibrotic lung tissue explants of BLM mice, col-I and α-SMA by Western blotting. The assay is classed as cell-based. The settings on record: CSP-4 10 nM, nutlin-3a 10 μM, 72 h. On the procedure: FIG. 13. Inhibition of BLM-induced pulmonary fibrosis by ex vivo treatment of WT mice lung tissues with CSP-4 or nutlin-3a (NTL). Mice were exposed to intranasal BLM for 21 d to induce pulmonary fibrosis. These mice (n=3) were sacrificed, lungs were excised, chopped into small pieces and placed in culture dishes with DMEM medium containing 10% fetal bovine serum. The tissue samples were later treated with CSP-4 (10 nM), control peptide (CP) and nutlin-3a (TL) (10 μM) for 72 h. Conditioned medium and tissue lysates were prepared and analyzed for changes in col-I, a-SMA and β-actin by Western blotting.
Mice were exposed to intranasal BLM for 21 d to induce pulmonary fibrosis, sacrificed, and their lungs excised and chopped into small pieces and placed into culture medium. These tissue samples were thereafter treated with 10 nM CSP-4 peptide, control peptide (CP) or nutlin-3a for 72 h. Conditioned medium and tissue lysates were and analyzed for changes in col-I and α-SMA by Western blotting. […] The present inventors' results provided herein and in recent reports (e.g., Bhandary et al, 2012, 2013, supra), strongly support the conception that p53-mediated downstream changes in uPA and PAI-1 regulates viability of FL-fibroblasts.

In assay [3] the test system is FL-fibroblasts. Put plainly: Treatment of FL-fibroblasts with nutlin-3a or CSP-4 (findings stated in the summary). The settings on record: for miR-34a expression / production of ECM / uPAR expression: FL-fibroblasts. The assay is classed as cell-based.

With `COc1ccc(C2=NC(c3ccc(Cl)cc3)C(c3ccc(Cl)cc3)N2C(=O)N2CCNC(=O)C2)c(OC(C)C)c1` (stereo not drawn) [nutlin-3a, 4-2-4,5-dihydro-1H-imidazole-1-piperazin-2-one], the “proliferation of FL-fibroblasts” value in the assay with FL-fibroblasts [1] is “inhibited”. Besides, the “staining for ki-67 antigens in lung sections” value in the assay on BLM-treated mice is “significantly reduced”. Moreover, in the assay with FL(IPF)-tissues, the “PAI-1 levels in fibroblasts isolated from IPF explants” value is listed as “elevated levels”; the “Phosphorylation of Akt in fibroblasts from IPF explants” value is “reduced”; the “expression of PDGFR-β mRNA and protein in fibroblasts from IPF explants” value is given as “reduced”; the “miR-34a levels in fibroblasts isolated from IPF explants” value is listed as “elevated levels”. In the assay with FL(IPF)-tissues, the “p53 levels in fibroblasts isolated from IPF explants” value is “elevated levels”, the “uPA expression in fibroblasts isolated from IPF explants” value is reported as “reduced”, the “uPAR expression in fibroblasts isolated from IPF explants” value is “reduced” and the “ECM synthetic rates of FL-lung explants” value is on record as “significantly reduced”. Besides, in the assay on FL(IPF)-tissues, the “production of ECM of fibroblasts from IPF explants” value is “significantly lower” and the “rate of proliferation of fibroblasts from IPF explants” value is listed as “significantly lower”. Besides, the “fibrosis ex vivo (changes in col-I and α-SMA)” value in assay [2] is listed as “inhibited”. For the same compound, in the assay with FL-fibroblasts [3], the miR-34a expression entry is on record as “restore”, the “production of ECM” value is listed as “inhibits” and the uPAR expression result is “inhibition”. Moreover, in the assay on FL-fibroblasts [3] (fibroblasts from lungs of patients with IPF and of mice with BLM-induced pulmonary fibrosis), the “apoptosis of fibrotic fibroblasts” value is “results in apoptosis”.
For the compound FTTFTVT [CSP-4], the “proliferation of FL-fibroblasts” value with FL-fibroblasts [1] is “inhibited”. Besides, the “staining for ki-67 antigens in lung sections” value in the assay with BLM-treated mice is reported as “significantly reduced”. Also, in the assay on FL(IPF)-tissues, the “PAI-1 levels in fibroblasts isolated from IPF explants” value is “elevated levels”; the “Phosphorylation of Akt in fibroblasts from IPF explants” value is reported as “reduced”; the “expression of PDGFR-β mRNA and protein in fibroblasts from IPF explants” value is “reduced”; the “miR-34a levels in fibroblasts isolated from IPF explants” value is reported as “elevated levels”. In addition, in the assay on FL(IPF)-tissues, the “p53 levels in fibroblasts isolated from IPF explants” value is given as “elevated levels”, the “uPA expression in fibroblasts isolated from IPF explants” value is reported as “reduced”, the “uPAR expression in fibroblasts isolated from IPF explants” value was “reduced” and the “ECM synthetic rates of FL-lung explants” value is on record as “significantly reduced”. For the same compound, in the assay with FL(IPF)-tissues, the “production of ECM of fibroblasts from IPF explants” value is “significantly lower” and the “rate of proliferation of fibroblasts from IPF explants” value is recorded as “significantly lower”. The “fibrosis ex vivo (changes in col-I and α-SMA)” value in assay [2] was “inhibited”. For the same compound, in the assay with FL-fibroblasts [3], the miR-34a expression entry is “restore”, the “production of ECM” value is recorded as “inhibits” and the uPAR expression result was “inhibition”.
